{
  "source": "patent US9108944B2",
  "about": "“Androgen receptor modulators and uses thereof” (ARAGON PHARMACEUTICALS, INC., priority 2010, dated 2015)",
  "key": {"AR-VP16 [1]": {"target": "T1, AR-VP16 (Homo sapiens, UniProt P10275)", "T1 sequence (P10275 560-920 limits assumed)": "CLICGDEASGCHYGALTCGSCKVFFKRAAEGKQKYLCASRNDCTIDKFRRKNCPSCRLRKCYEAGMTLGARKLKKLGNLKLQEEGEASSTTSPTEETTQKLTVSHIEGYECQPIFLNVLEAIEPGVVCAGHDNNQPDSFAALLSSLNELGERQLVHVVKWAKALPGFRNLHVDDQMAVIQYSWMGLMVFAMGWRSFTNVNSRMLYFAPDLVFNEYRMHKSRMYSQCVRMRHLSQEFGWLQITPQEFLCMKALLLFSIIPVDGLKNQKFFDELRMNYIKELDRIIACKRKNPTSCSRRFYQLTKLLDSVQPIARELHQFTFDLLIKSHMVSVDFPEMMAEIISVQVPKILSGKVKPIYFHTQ", "assay": "AR-VP16 DNA Binding Assay, agonist mode (HepG2 cells)", "assay_type": "cell-based", "conditions": "Emax >20x DMSO control = agonist"}, "AR-VP16 [2]": {"target": "T1, AR-VP16", "assay": "AR-VP16 DNA Binding Assay, antagonist mode (HepG2 cells, 0.1 nM R1881)", "assay_type": "cell-based", "method_in_brief": "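HepG2 cells transiently transfected with AR-VP16 (Lipofectin), incubated overnight, then treated with compound in RPMI with charcoal-stripped serum. Antagonist mode adds R1881 at 0.1 nM final. Cells lysed after 48 h incubation for read-out.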"}},
  "data": [
    {"smiles": "COCCOc1ccc(N2C(=S)N(c3cnc(C#N)c(C(F)(F)F)c3)C(=O)C23CCC3)cc1F", "note": "[Compound 131, 5-(5-(3-Fluoro-4-(2-methoxyethoxy)phenyl)-8-oxo-6-thioxo-5,7-diazaspiro[3.4]octan-7-yl)-3-(trifluoromethyl)picolinonitrile]", "values": [
      {"measurement": "ARVP16 DNA Binding Assay (Agonist mode): Agonist?", "setting": "AR-VP16 [1]", "result": "No (Agonist defined as a compound whose Emax in the ARVP16 DNA Binding Assay (Agonist mode) is >20x DMSO control)"},
      {"measurement": "IC50", "setting": "AR-VP16 [2]", "result": "< 1000", "unit": "nM"}
    ]},
    {"smiles": "N#Cc1ncc(N2C(=O)C3(CCC3)N(c3ccc(C(=O)N4CCCC4)c(F)c3)C2=S)cc1C(F)(F)F", "note": "[Compound 270, 5-(5-(3-Fluoro-4-(pyrrolidine-1-carbonyl)phenyl)-8-oxo-6-thioxo-5,7-diazaspiro[3.4]octan-7-yl)-3-(trifluoromethyl)picolinonitrile]", "values": [
      {"measurement": "ARVP16 DNA Binding Assay (Agonist mode): Agonist?", "setting": "AR-VP16 [1]", "result": "No (Agonist defined as a compound whose Emax in the ARVP16 DNA Binding Assay (Agonist mode) is >20x DMSO control)"},
      {"measurement": "IC50", "setting": "AR-VP16 [2]", "result": "> 1000", "unit": "nM"}
    ]}
  ]
}
